Measurements taken from US10526295B2, “Nuclear transport modulators and uses thereof” (Karyopharm Therapeutics Inc., priority 2015, dated 2020).

Legend:
Assay type in all cases: cell-based
MM1S cells = test: MTT cell proliferation assay (MM1S); conditions: Homo sapiens, MM1.S; MM1S multiple myeloma cells; approximately 64-72 hours incubation; 1 nM to 30 μM
Experimental: (§1) The MTT cell proliferation assay was used to study the cytotoxic properties of the compounds. The assay was performed according to the method described by Roche Molecular Biochemicals, with minor modifications. The assay is based on the cleavage of the tetrazolium salt, MTT, in the presence of an electron-coupling reagent. The water-insoluble formazan salt produced must be solubilized in an additional step. Cells grown in a 96-well tissue culture plate were incubated with the MTT solution for approximately 4 hours. After this incubation period, a water-insoluble formazan dye formed. After solubilization, the formazan dye was quantitated using a scanning multi-well spectrophotometer (ELISA reader). […] The cells were seeded at 5,000-10,000 cells in each well of 96-well plate in 100 μL of fresh culture medium and were allowed to attach overnight. The stock solutions of the compounds were diluted in 100 μL cell culture medium to obtain eight concentrations of each test compound, ranging from 1 nM to 30 μM. […] All optical densities were measured at 490 nm using a Vmax Kinetic Microplate Reader (Molecular Devices). In most cases, the assay was performed in duplicate and the results were presented as a mean percent inhibition to the negative control±SE. The following formula was used to calculate the percent of inhibition: Inhibition (%)=(1−(ODo/OD))×100.
(§2) The compounds were tested against Z138, MM1S and 3T3 cells. The Z138 cell line is a mature B-cell acute lymphoblastic leukemia cell line derived from a patient with chronic lumphocytic leukemia. The MM1S cell line was established from the peripheral blood of a human multiple myeloma patient. 3T3 cells are standard fibroblast cells; they were originally isolated from Swiss mouse embryo tissue.

Z138 cells = test: MTT cell proliferation assay (Z138); conditions: Homo sapiens, Z-138, approximately 64-72 hours incubation, 1 nM to 30 μM
Experimental: as §1, §2

3T3 cells = test: MTT cell proliferation assay (3T3); conditions: Mus musculus, NIH3T3; 3T3 fibroblast cells; approximately 64-72 hours incubation; 1 nM to 30 μM
Experimental: as §1, §2

Row | Compound | IC50 (MM1S cells) [µM] | IC50 (Z138 cells) [µM] | IC50 (3T3 cells) [µM]
1 | NC(=O)/C(=C/n1cnc(-c2cc(C(F)(F)F)cc(C(F)(F)F)c2)n1)c1cccc(S(=O)(=O)N2CCC(F)(F)CC2)c1 [Compound 122, (E)-3-(3-(3,5-bis(trifluoromethyl)phenyl)-1H-1,2,4-triazol-1-yl)-2-(3-(4,4-difluoropiperidin-1-ylsulfonyl)phenyl)acrylamide] | 0.1 to 5 | 0.1 to 5 | > 30
2 | NC(=O)/C(=C/n1cnc(-c2cc(C(F)(F)F)cc(C(F)(F)F)c2)n1)c1cccc(S(=O)(=O)N2CC(F)C2)c1 [Compound 123, (E)-3-(3-(3,5-bis(trifluoromethyl)phenyl)-1H-1,2,4-triazol-1-yl)-2-(3-(3-fluoroazetidin-1-ylsulfonyl)phenyl)acrylamide] | 0.1 to 5 | 0.1 to 5 | > 30
3 | CN1CCN(S(=O)(=O)c2cccc(/C(=C\n3cnc(-c4cc(C(F)(F)F)cc(C(F)(F)F)c4)n3)C(N)=O)c2)CC1 [Compound 124, (E)-3-(3-(3,5-bis(trifluoromethyl)phenyl)-1H-1,2,4-triazol-1-yl)-2-(3-(4-methylpiperazin-1-ylsulfonyl)phenyl)acrylamide] | 0.1 to 5 | 0.1 to 5 | > 30
4 | NC(=O)/C(=C/n1cnc(-c2cc(C(F)(F)F)cc(C(F)(F)F)c2)n1)c1cccc(S(=O)(=O)N2CCCC2)c1 [Compound 125, (E)-3-(3-(3,5-bis(trifluoromethyl)phenyl)-1H-1,2,4-triazol-1-yl)-2-(3-(pyrrolidin-1-ylsulfonyl)phenyl)acrylamide] | 0.1 to 5 | 0.1 to 5 | > 30
5 | NC(=O)/C(=C/n1cnc(-c2cc(C(F)(F)F)cc(C(F)(F)F)c2)n1)c1cccc(S(=O)(=O)N2CCC(C(F)(F)F)CC2)c1 [Compound 126, (E)-3-(3-(3,5-bis(trifluoromethyl)phenyl)-1H-1,2,4-triazol-1-yl)-2-(3-(4-(trifluoromethyl)piperidin-1-ylsulfonyl)phenyl)acrylamide] | 5 to 30 | 0.1 to 5 | > 30
6 | NC(=O)/C(=C/n1cnc(-c2cc(C(F)(F)F)cc(C(F)(F)F)c2)n1)c1cccc(S(=O)(=O)N2CCC2)c1 [Compound 127, (E)-2-(3-(azetidin-1-ylsulfonyl)phenyl)-3-(3-(3,5-bis(trifluoromethyl)phenyl)-1H-1,2,4-triazol-1-yl)acrylamide] | 0.1 to 5 | 0.1 to 5 | 0.1 to 5
7 | NC(=O)/C(=C/n1cnc(-c2cc(C(F)(F)F)cc(C(F)(F)F)c2)n1)c1cccc(S(=O)(=O)N2CCC(F)(F)C2)c1 [Compound 128, (E)-3-(3-(3,5-bis(trifluoromethyl)phenyl)-1H-1,2,4-triazol-1-yl)-2-(3-(3,3-difluoropyrrolidin-1-ylsulfonyl)phenyl)acrylamide] | > 30 | 0.1 to 5 | 0.1 to 5
